# Several values for one entry are separate records, joined by “and”; a condition that tells them apart may be missing. Equal values may be shown once. Inconclusive results are not listed.
# Test system: BDF1 mice, s.c. Lewis lung carcinoma, T/C %
# Assay: NCI In Vivo Anticancer Drug Screen. Data for tumor model Lewis Lung Carcinoma (subcutaneous) in B6D2F1 (BDF1) mice
# Summary of the method: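 The value reflects a ratio in which the treated cohort's survival time or tumour size is compared against mice receiving only vehicle.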
# [1] = endpoint: median survival time, dose: 12.5 mg/kg/injection, schedule: Q01DX009 (ip), vehicle: Klucel (hydroxypropylcellulose) (HPC), higher = longer survival
# [2] = endpoint: median survival time, dose: 50.0 mg/kg/injection, schedule: Q01DX009 (ip), vehicle: Klucel (hydroxypropylcellulose) (HPC), higher = longer survival
# [3] = endpoint: median survival time, dose: 1.56 mg/kg/injection, schedule: Q01DX009 (ip), vehicle: Klucel (hydroxypropylcellulose) (HPC), higher = longer survival
# [4] = endpoint: median survival time, dose: 3.13 mg/kg/injection, schedule: Q01DX009 (ip), vehicle: Klucel (hydroxypropylcellulose) (HPC), higher = longer survival
# [5] = endpoint: mean tumor weight, dose: 200.0 mg/kg/injection, schedule: Q01DX011 (ip), vehicle: other, higher = larger tumour
smiles,measurement,setting,value
CCc1ccc(NC(=O)N(CCCl)N=O)cc1,T/C,"endpoint: median survival time, dose: 1.9 mg/kg/injection, schedule: Q01DX009 (ip), vehicle: Klucel (hydroxypropylcellulose) (HPC), higher = longer survival",108 % of control
same,T/C,"endpoint: median survival time, dose: 7.5 mg/kg/injection, schedule: Q01DX009 (ip), vehicle: Klucel (hydroxypropylcellulose) (HPC), higher = longer survival",98 % of control
same,T/C,"endpoint: median survival time, dose: 15.0 mg/kg/injection, schedule: Q01DX009 (ip), vehicle: Klucel (hydroxypropylcellulose) (HPC), higher = longer survival",95 % of control
FC(F)(F)c1cc(CN(CCCl)CCCl)cc(C(F)(F)F)c1,T/C,[1],90 % of control
same,T/C,[2],90 % of control
CCCCCCCC(=O)O[C@H]1[C@H]2[C@@H](CC1(C)C)C(=O)[C@]13O[C@H]1C(=O)[C@]1(CO1)[C@]23C,T/C,"endpoint: median survival time, dose: 0.31 mg/kg/injection, schedule: Q01DX009 (ip), vehicle: Klucel (hydroxypropylcellulose) (HPC), higher = longer survival",89 % of control
same,T/C,"endpoint: median survival time, dose: 0.63 mg/kg/injection, schedule: Q01DX009 (ip), vehicle: Klucel (hydroxypropylcellulose) (HPC), higher = longer survival",90 % of control
same,T/C,"endpoint: median survival time, dose: 1.25 mg/kg/injection, schedule: Q01DX009 (ip), vehicle: Klucel (hydroxypropylcellulose) (HPC), higher = longer survival",89 % of control
same,T/C,"endpoint: median survival time, dose: 2.5 mg/kg/injection, schedule: Q01DX009 (ip), vehicle: Klucel (hydroxypropylcellulose) (HPC), higher = longer survival",89 % of control
CSc1ccc(NC(=O)N(CCCl)N=O)cc1,T/C,"endpoint: median survival time, dose: 6.25 mg/kg/injection, schedule: Q01DX009 (ip), vehicle: Klucel (hydroxypropylcellulose) (HPC), higher = longer survival",115 % of control
same,T/C,[1],90 % of control
same,T/C,"endpoint: median survival time, dose: 25.0 mg/kg/injection, schedule: Q01DX009 (ip), vehicle: Klucel (hydroxypropylcellulose) (HPC), higher = longer survival",106 % of control
same,T/C,[2],103 % of control
CC(C)=CCC/C(C)=C/CO,T/C,"endpoint: mean tumor weight, dose: 3.9 mg/kg/injection, schedule: Q01DX011 (ip), vehicle: saline, higher = larger tumour",74 % of control
same,T/C,"endpoint: mean tumor weight, dose: 7.8 mg/kg/injection, schedule: Q01DX011 (ip), vehicle: saline, higher = larger tumour",85 % of control
same,T/C,"endpoint: mean tumor weight, dose: 15.6 mg/kg/injection, schedule: Q01DX011 (ip), vehicle: saline, higher = larger tumour",71 % of control
same,T/C,"endpoint: mean tumor weight, dose: 31.3 mg/kg/injection, schedule: Q01DX011 (ip), vehicle: saline, higher = larger tumour",68 % of control and 73 % of control
same,T/C,"endpoint: mean tumor weight, dose: 62.5 mg/kg/injection, schedule: Q01DX011 (ip), vehicle: saline, higher = larger tumour",105 % of control
Nc1nc2[nH]c(=O)cnc2c(=O)[nH]1,T/C,"endpoint: median survival time, dose: 12.5 mg/kg/injection, schedule: Q01DX009 (ip), vehicle: saline with Tween-80, higher = longer survival",97 % of control
same,T/C,"endpoint: median survival time, dose: 50.0 mg/kg/injection, schedule: Q01DX009 (ip), vehicle: saline with Tween-80, higher = longer survival",99 % of control
same,T/C,"endpoint: median survival time, dose: 100.0 mg/kg/injection, schedule: Q01DX009 (ip), vehicle: saline, higher = longer survival",104 % of control
same,T/C,"endpoint: median survival time, dose: 200.0 mg/kg/injection, schedule: Q01DX009 (ip), vehicle: saline, higher = longer survival",104 % of control
same,T/C,"endpoint: median survival time, dose: 400.0 mg/kg/injection, schedule: Q01DX009 (ip), vehicle: saline, higher = longer survival",110 % of control
O=c1ccc2ccccc2o1,T/C,"endpoint: mean tumor weight, dose: 110.0 mg/kg/injection, schedule: Q01DX011 (ip), vehicle: carboxymethylcellulose (CMC), higher = larger tumour",57 % of control
same,T/C,"endpoint: mean tumor weight, dose: 165.0 mg/kg/injection, schedule: Q01DX011 (ip), vehicle: carboxymethylcellulose (CMC), higher = larger tumour",63 % of control
CCO/C=C1\SC(=S)N(c2cccc(OC)c2)C1=O,T/C,"endpoint: median survival time, dose: 50.0 mg/kg/injection, schedule: Q01DX001 (ip), vehicle: Klucel (hydroxypropylcellulose) (HPC), higher = longer survival",101 % of control
same,T/C,"endpoint: median survival time, dose: 100.0 mg/kg/injection, schedule: Q01DX001 (ip), vehicle: Klucel (hydroxypropylcellulose) (HPC), higher = longer survival",104 % of control
same,T/C,"endpoint: median survival time, dose: 200.0 mg/kg/injection, schedule: Q01DX001 (ip), vehicle: Klucel (hydroxypropylcellulose) (HPC), higher = longer survival",102 % of control
same,T/C,"endpoint: median survival time, dose: 400.0 mg/kg/injection, schedule: Q01DX001 (ip), vehicle: Klucel (hydroxypropylcellulose) (HPC), higher = longer survival",101 % of control
C[CH2][Pb]([CH2]C)([CH2]C)[O]C(=O)COC,T/C,[3],92 % of control
same,T/C,[4],96 % of control
Nc1ncnc2c1ncn2C1CCCO1 (stereo not given),T/C,"endpoint: mean tumor weight, dose: 50.0 mg/kg/injection, schedule: Q01DX011 (ip), vehicle: other, higher = larger tumour",75 % of control
same,T/C,"endpoint: mean tumor weight, dose: 100.0 mg/kg/injection, schedule: Q01DX011 (ip), vehicle: other, higher = larger tumour",56 % of control
same,T/C,[5],37 % of control
Cc1ccnc(NS(=O)(=O)c2ccc(N=Nc3nc4[nH]c(N)nc(=S)c4[nH]3)cc2)n1,T/C,"endpoint: median survival time, dose: 0.19 mg/kg/injection, schedule: Q01DX009 (ip), vehicle: Klucel (hydroxypropylcellulose) (HPC), higher = longer survival",106 % of control
same,T/C,"endpoint: median survival time, dose: 0.39 mg/kg/injection, schedule: Q01DX009 (ip), vehicle: Klucel (hydroxypropylcellulose) (HPC), higher = longer survival",94 % of control
same,T/C,"endpoint: median survival time, dose: 0.78 mg/kg/injection, schedule: Q01DX009 (ip), vehicle: Klucel (hydroxypropylcellulose) (HPC), higher = longer survival",97 % of control
same,T/C,[3],87 % of control and 103 % of control
COc1cccc2c1C(=O)c1c(O)c3c(c(O)c1C2=O)C[C@@](O)(C(=O)CO)C[C@@H]3OC1CC(N)C(O)C(C)O1 (stereo not given in full),T/C,"endpoint: median survival time, dose: 0.03 mg/kg/injection, schedule: Q01DX009 (ip), vehicle: saline, higher = longer survival",88 % of control
same,T/C,"endpoint: median survival time, dose: 0.06 mg/kg/injection, schedule: Q01DX009 (ip), vehicle: saline, higher = longer survival",88 % of control
same,T/C,"endpoint: median survival time, dose: 0.12 mg/kg/injection, schedule: Q01DX009 (ip), vehicle: saline, higher = longer survival",100 % of control
same,T/C,"endpoint: median survival time, dose: 0.25 mg/kg/injection, schedule: Q01DX009 (ip), vehicle: saline, higher = longer survival",105 % of control
same,T/C,"endpoint: median survival time, dose: 0.25 mg/kg/injection, schedule: Q08HX024 (ip), vehicle: saline, higher = longer survival",113 % of control
same,T/C,"endpoint: median survival time, dose: 0.5 mg/kg/injection, schedule: Q08HX024 (ip), vehicle: saline, higher = longer survival",182 % of control
same,T/C,"endpoint: median survival time, dose: 1.0 mg/kg/injection, schedule: Q08HX024 (ip), vehicle: saline, higher = longer survival",89 % of control
same,T/C,"endpoint: median survival time, dose: 1.92 mg/kg/injection, schedule: Q04DX003 (ip), vehicle: saline, higher = longer survival",104 % of control and 106 % of control
same,T/C,"endpoint: median survival time, dose: 1.92 mg/kg/injection, schedule: Q04DX003 (iv), vehicle: saline, higher = longer survival",93 % of control and 108 % of control
same,T/C,"endpoint: median survival time, dose: 2.74 mg/kg/injection, schedule: Q04DX003 (ip), vehicle: saline, higher = longer survival",99 % of control and 103 % of control
same,T/C,"endpoint: median survival time, dose: 2.74 mg/kg/injection, schedule: Q04DX003 (iv), vehicle: saline, higher = longer survival",99 % of control and 111 % of control
same,T/C,"endpoint: median survival time, dose: 3.36 mg/kg/injection, schedule: Q01DX001 (ip), vehicle: saline, higher = longer survival",101 % of control and 102 % of control
same,T/C,"endpoint: median survival time, dose: 3.36 mg/kg/injection, schedule: Q01DX001 (iv), vehicle: saline, higher = longer survival",101 % of control and 105 % of control
same,T/C,"endpoint: median survival time, dose: 3.9 mg/kg/injection, schedule: Q04DX003 (ip), vehicle: saline, higher = longer survival",105 % of control and 123 % of control
same,T/C,"endpoint: median survival time, dose: 3.9 mg/kg/injection, schedule: Q04DX003 (iv), vehicle: saline, higher = longer survival",108 % of control and 113 % of control
same,T/C,"endpoint: median survival time, dose: 4.8 mg/kg/injection, schedule: Q01DX001 (ip), vehicle: saline, higher = longer survival",98 % of control and 102 % of control
same,T/C,"endpoint: median survival time, dose: 4.8 mg/kg/injection, schedule: Q01DX001 (iv), vehicle: saline, higher = longer survival",90 % of control and 102 % of control
same,T/C,"endpoint: median survival time, dose: 5.6 mg/kg/injection, schedule: Q04DX003 (iv), vehicle: saline, higher = longer survival",105 % of control
same,T/C,"endpoint: median survival time, dose: 6.86 mg/kg/injection, schedule: Q01DX001 (ip), vehicle: saline, higher = longer survival",117 % of control
same,T/C,"endpoint: median survival time, dose: 6.86 mg/kg/injection, schedule: Q01DX001 (iv), vehicle: saline, higher = longer survival",111 % of control and 114 % of control
same,T/C,"endpoint: median survival time, dose: 9.8 mg/kg/injection, schedule: Q01DX001 (iv), vehicle: saline, higher = longer survival",105 % of control
same,T/C,"endpoint: median survival time, dose: 14.0 mg/kg/injection, schedule: Q01DX001 (ip), vehicle: saline, higher = longer survival",99 % of control
C[n+]1ccc(Nc2ccc(NC(=O)c3ccc(Nc4cc[n+](C)c5ccc(N)cc45)cc3N)cc2)cc1,T/C,"endpoint: mean tumor weight, dose: 6.25 mg/kg/injection, schedule: Q01DX011 (ip), vehicle: saline, higher = larger tumour",158 % of control
same,T/C,"endpoint: mean tumor weight, dose: 12.5 mg/kg/injection, schedule: Q01DX011 (ip), vehicle: saline, higher = larger tumour",40 % of control
same,T/C,[4],243 % of control
same,T/C,[1],244 % of control
Cc1nnc(N)s1,T/C,"endpoint: mean tumor weight, dose: 133.0 mg/kg/injection, schedule: Q01DX011 (ip), vehicle: other, higher = larger tumour",80 % of control
same,T/C,[5],77 % of control
same,T/C,"endpoint: mean tumor weight, dose: 300.0 mg/kg/injection, schedule: Q01DX011 (ip), vehicle: other, higher = larger tumour",79 % of control
CCCCCCCCCCCCCCCCC(C(=O)O)C(O)(CC(=O)O)C(=O)O (stereo not given),T/C,"endpoint: mean tumor weight, dose: 22.0 mg/kg/injection, schedule: Q01DX011 (ip), vehicle: carboxymethylcellulose (CMC), higher = larger tumour",64 % of control
same,T/C,"endpoint: mean tumor weight, dose: 35.0 mg/kg/injection, schedule: Q01DX011 (ip), vehicle: carboxymethylcellulose (CMC), higher = larger tumour",68 % of control
same,T/C,"endpoint: mean tumor weight, dose: 50.0 mg/kg/injection, schedule: Q01DX011 (ip), vehicle: carboxymethylcellulose (CMC), higher = larger tumour",46 % of control

# Reference: PubChem BioAssay AID270 (DTP/NCI, 2004)
